Patent publication US12338296B2, “Peptides and compounds that bind to elongation initiation factor 4E” (AGENCY FOR SCIENCE, TECHNOLOGY AND RESEARCH, priority 2019, dated 2025)
Entries after “also recorded” stand apart in the source; their conditions may differ.

How the values were obtained:
eIF4E cap-binding site = molecular target: T1, eIF4E cap-binding site (Homo sapiens, UniProt P06730); assay: Competitive fluorescence polarization, cap analogue binding assessment (FAM labelled m7GTP); conditions: eIF4E 250 nM, labelled m7GTP 50 nM; FIG. 1B; listed as EE-02
T1 construct: made in house; Plasmid and cells were provided by Cyclacel Ltd., Dundee
Experimental: Apparent Kd values were determined by fitting the experimental data to the equations shown below:
[formula] [L]st and [L]t denote labeled ligand and total unlabeled ligand input concentrations, respectively. Kd2 is the dissociation constant of the interaction between the unlabelled ligand and the protein. In all competitive types of experiments, it is assumed that [P]t>[L]st, otherwise considerable amounts of free labeled ligand would always be present and would interfere with measurements. Kd1 is the apparent Kd for the labeled peptide used in the respective experiment. […] Readings were carried out with a Envision Multi-label Reader (PerkinElmer). Experiments were carried out in PBS (2.7 mM KCl, 137 mM NaCl, 10 mM NaHPO4 and 2 mM KHPO4 (pH 7.4)), 3% DMSO (v/v) and 0.1% Tween 20 buffer. All titrations were carried out in triplicate. Curve-fitting was carried out using Prism 4.0 (GraphPad). […]
From these initial results it was predicted the new peptide motif might interact with eIF4E either via a different binding pose at the eIF4G binding site, or at the cap-binding site or elsewhere on the protein. The binding site was initially delineated on eIF4E by using two types of competitive fluorescence polarization experiments, one of which utilised a FAM labelled cap-analogue and the other that used a FAM labelled eIF4G1 derived peptide (FIG. 1).

eIF4E [1] = molecular target: T2, eIF4E (Homo sapiens, UniProt P06730); assay: Tryptophan quenching experiments; format: binding; conditions: 1 μM eIF4E, 0.01-20 μM titrant, excitation 290 nm, emission 355 nm; FIG. 2
T2 construct: made in house; Plasmid and cells were provided by Cyclacel Ltd., Dundee
Experimental: Tryptophan Quenching Experiments
Tryptophan quenching experiments were performed using an EnVision® multiplate reader with black matte 96-well plates. […] Concentrations tested ranged from 0.01-20 μM. Samples were excited with UV light at 290 nm to minimise contribution from tyrosine fluorescence. Tryptophan was measured at an emission wavelength of 355 nm.

eIF4E [2] = molecular target: T2, eIF4E; assay: Fluorescence anisotropy direct titration of eIF4E against FAM labelled tracers; conditions: 50 nM tracer, eIF4E titrated, 1:1 binding model; read-out: Kd for interaction of labelled tracer with eIF4E
Source text: Fluorescence Anisotropy Assays and Kd Determination.
Both were used later for subsequent Kd determination in competition experiments.

T1 sequence (P06730 whole entry): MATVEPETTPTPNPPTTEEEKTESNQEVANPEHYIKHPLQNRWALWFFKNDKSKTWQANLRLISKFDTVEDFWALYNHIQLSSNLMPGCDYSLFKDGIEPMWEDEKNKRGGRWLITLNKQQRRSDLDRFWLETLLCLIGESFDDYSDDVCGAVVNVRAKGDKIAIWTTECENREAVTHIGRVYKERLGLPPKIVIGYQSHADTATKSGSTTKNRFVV
T2 sequence (P06730 whole entry): as above

CSCC[C@@H]1NC(=O)[C@H](CCC(=O)O)NC(=O)[C@@H](NC(=O)[C@H](C)N)CSSC[C@@H](C(=O)NCC(N)=O)NC(=O)[C@H](CC(=O)O)NC(=O)[C@H](CCC(N)=O)NC(=O)[C@H](Cc2ccccc2)NC(=O)[C@H](Cc2ccccc2)NC(=O)CNC1=O [EE-2]
displacement of fluorescently labelled m7GTP from eIF4E (eIF4E cap-binding site): most potent peptide out of the set identified; also recorded: can displace fluorescently labelled m7GTP | tryptophan quenching of eIF4E (eIF4E [1]): significantly different profile to m7GTP/m7GDP

m^7GTP-6-FAM
Kd (eIF4E [2]): 149 nM
